# Patent US11096941B2, “Methods of treating circadian rhythm sleep disorders” (Eisai R&D Management Co., Ltd., priority 2016, dated 2021)
# Marks after values point to notes of the source that are not given here.
# What was measured:
# [1] = test system: male senescence accelerated mouse resistant-1 (SAMR1, R1) strain animals; assay: Sleep/wake EEG/EMG recording and wake circadian phase in SAMR1 mice after oral administration; format: in vivo
# From the text: (§1) A compound of Formula (I) was finely crushed and suspended in vehicle, a mixture of 0.5% w/v methylcellulose 400 cP in distilled water. Experimental data were collected on male senescence accelerated mouse prone-8 (“SAMP8” or “P8”) strain animals and male senescence accelerated mouse resistant-1 (“SAMR1” or “R1”) strain animals at the age of 21 weeks. P8 mice are known to show accelerated symptoms of aging and also pathological and behavioral symptoms of Alzheimer's disease, while R1 mice are used to represent a normal aging process and are also used as a control strain for P8 mice. See, e.g., Miyamoto, et al., Exp. Geron., 1997, 32, 139-48; Morley et al., Curr. Pharm. Des., 2012, 18, 1123-30.
# (§2) Electroencephalogram (“EEG”) and electromyogram (“EMG”) electrodes were implanted on each mouse at 17-18 weeks of age, and the mice were then allowed to recover for at least 18 days in individual recording cages, where they could freely move, under a 12-hour light/12-hour dark cycle. Amplified EEG and EMG signals were digitally recorded for 3 days, separated into individual 24-hour recordings, which were initiated at each lights-on event. During the first 30 minutes of the light cycle (ZT 0-0.5), each mouse received an oral administration of either vehicle or 3 mg/kg of the compound of Formula (I) in vehicle or 30 mg/kg of the compound of Formula (I) in vehicle, after which the sleep/wake behavior of mice was recorded until the next lights on event. Each mouse received every treatment in a cross-over fashion with one treatment per day in the following order: vehicle (10 mL/kg bodyweight), 3 mg/kg, and then 30 mg/kg. Some mice started with vehicle on day 1, some mice started with 3 mg/kg compound of Formula (I) on day 1, and some mice started with 30 mg/kg compound of Formula (I) on day 1.
# (§3) EEG frequency and EMG activity signal data were analyzed using software from Kissei Comtec Co., Ltd. to characterize every 10 second epoch as either rapid eye movement (REM) sleep, non-REM sleep, or wakefulness. Then, accumulated wakefulness, non-REM sleep, and REM sleep times over the light cycle (11.5 hours) and the dark cycle (12 hours) were calculated. Additionally, latencies to sleep and REM sleep were calculated as the first appearance of 6 or more epochs of uninterrupted sleep or one or more epochs of REM sleep after the dosing event, respectively. The circadian rhythm parameter phase was determined as the inflection point of a cosine curve fit to the wakefulness distribution in 30 minute bins across the day for every individual mouse using JTK_CYCLE software. Hughes, et al., J. Biol. Rhythms, 2010, 25, 372-80.
# (§4) The differences between P8 mice and R1 mice (control mice) were statistically analyzed by comparing sleep/wake behavior and circadian rhythm of the vehicle-treated animals of each strain, while the effect of administration of a compound of Formula (I) on sleep/wake behavior and circadian rhythm was statistically analyzed for each strain as the difference between sleep/wake behavior and circadian rhythm on the vehicle-administration day and sleep/wake behavior and circadian rhythm on a drug-administration day. Statistical analysis of wakefulness time, non-REM sleep time, REM sleep time and latency, and sleep latency was performed with a linear mixed model which specified animal as random effect, and day, strain, treatment and the interaction between strain and treatment as fixed effects with Kenward-Roger as denominator degrees of freedom using SAS software. For estimation of wakefulness phase and its covariance, a linear mixed model was used which assumed heterogeneous variance of strain and treatment combination with Kenward-Roger as denominator and degrees of freedom using SAS software.
# [2] = test system: male senescence accelerated mouse prone-8 (SAMP8, P8) strain animals; assay: Sleep/wake EEG/EMG recording and wake circadian phase in SAMP8 mice after oral administration; format: in vivo; conditions: for Wake circadian phase, Phase (ZT): least square mean ± standard error
# From the text: as §1, §2, §3, §4
# [3] = 3 and 30 mg/kg oral during ZT 0-0.5, vs vehicle
# [4] = 3 and 30 mg/kg oral, vs vehicle (FIG. 2)
# [5] = P8 mice, 3 mg/kg oral at ZT 0-0.5
# [6] = P8 mice, 30 mg/kg oral at ZT 0-0.5
# [7] = P8 mice, 3 and 30 mg/kg oral during ZT 0-0.5, vs vehicle
# [8] = P8 mice, 3 and 30 mg/kg oral, vs vehicle (FIG. 2)
structure (smiles),measurement,setting,value
"Cc1ncc(OC[C@@]2(c3cccc(F)c3)C[C@H]2C(=O)Nc2ccc(F)cn2)c(C)n1 [compound of Formula (I), (1R,2S)-2-(((2,4-dimethylpyrimidin-5-yl)oxy)methyl)-2-(3-fluorophenyl)-N-(5-fluoropyridin-2-yl)cyclopropanecarboxamide]",Covariance of Phase,[1]; 3 mg/kg oral at ZT 0-0.5,5.18
same,"Wake circadian phase, Phase (ZT)","[1]; 3 mg/kg oral at ZT 0-0.5, least square mean ± standard error",15.65 ± 0.87 ZT
same,"vigilance states (wakefulness, non-REM sleep, REM sleep) during dark time","[1]; 3 mg/kg oral in previous light time, ZT 12-24",no effect on each of the vigilance states
same,Covariance of Phase,[1]; 30 mg/kg oral at ZT 0-0.5,0.05
same,"Wake circadian phase, Phase (ZT)","[1]; 30 mg/kg oral at ZT 0-0.5, least square mean ± standard error",17.02 ± 0.35^a ZT
same,wakefulness time during dark time,"[1]; 30 mg/kg oral in previous light time, ZT 12-24 (FIG. 1A)",decrease of wakefulness
same,non-REM sleep time during dark time,"[1]; 30 mg/kg oral in previous light time, ZT 12-24 (FIG. 1B)",increase of non-REM sleep
same,wakefulness time during light time,"[1]; 3 and 30 mg/kg oral at beginning of light time, ZT 0.5-12, vs vehicle (FIG. 1A)","reduces, in a dose-dependent manner, wakefulness"
same,phase covariance and phase variability (in words),[1]; [3],reduction in phase covariance and phase variability
same,wake phase shift (in words),[1]; [3],dose-dependent significant delay (right-shift) of the wake phase
same,non-REM sleep time during light time,"[1]; 3 and 30 mg/kg oral, ZT 0.5-12, vs vehicle (FIG. 1B)",increases non-REM sleep
same,REM sleep time during light time,"[1]; 3 and 30 mg/kg oral, ZT 0.5-12, vs vehicle (FIG. 1C)",dose-dependent increase in the amount of REM sleep
same,REM sleep latency,[1]; [4],dose-dependent reduction of sleep and REM sleep latencies
same,sleep latency,[1]; [4],dose-dependent reduction of sleep and REM sleep latencies
same,Covariance of Phase,[2]; [5],1.32
same,"Wake circadian phase, Phase (ZT)",[2]; [5],14.00 ± 0.56 ZT
same,Covariance of Phase,[2]; [6],2.11
same,"Wake circadian phase, Phase (ZT)",[2]; [6],15.41 ± 0.64^b ZT
same,wakefulness time during light time,"[2]; P8 mice, 3 and 30 mg/kg oral at beginning of light time, ZT 0.5-12, vs vehicle (FIG. 1A)","reduces, in a dose-dependent manner, wakefulness"
same,phase covariance and phase variability (in words),[2]; [7],reduction in phase covariance and phase variability
same,wake phase shift (in words),[2]; [7],dose-dependent and significant delay (right-shift) of the wake phase
same,wakefulness time during dark time,"[2]; P8 mice, 3 and 30 mg/kg oral in previous light time, ZT 12-24 (FIG. 1A)",dose-dependent increase in wakefulness
same,non-REM sleep time during dark time,"[2]; P8 mice, 3 and 30 mg/kg oral in previous light time, ZT 12-24 (FIG. 1B)",decreases in non-REM sleep and REM sleep
same,REM sleep time during dark time,"[2]; P8 mice, 3 and 30 mg/kg oral in previous light time, ZT 12-24 (FIG. 1C)",decreases in non-REM sleep and REM sleep
same,non-REM sleep time during light time,"[2]; P8 mice, 3 and 30 mg/kg oral, ZT 0.5-12, vs vehicle (FIG. 1B)",increases non-REM sleep
same,REM sleep time during light time,"[2]; P8 mice, 3 and 30 mg/kg oral, ZT 0.5-12, vs vehicle (FIG. 1C)",dose-dependent increase in the amount of REM sleep
same,REM sleep latency,[2]; [8],dose-dependent reduction of sleep and REM sleep latencies
same,sleep latency,[2]; [8],dose-dependent reduction of sleep and REM sleep latencies
same,wake phase relative to vehicle-treated R1 mice,"[2]; treated P8 mice, administration during ZT 0-0.5",correction to the level of vehicle-treated R1 mice
same,amounts of wake and non-REM sleep in light time relative to vehicle-treated R1 mice,"[2]; treated P8 mice, light time",normalized to the level of vehicle-treated R1 mice
